Assay results taken from US20220016098A1, “ORALLY ADMINISTERED PHARMACEUTICAL COMPOSITION COMPRISING FAB I INHIBITORS AND METHOD FOR PREPARING SAME” (priority 2018, published 2022).
In brackets after ≈: the same amount, converted by molar mass. Where two headings read alike, the source gives them in different places.

Columns and labels:
[1] = test system: MRSA strains (methicillin-resistant Staphylococcus aureus); test: MIC test on MRSA clinical isolates; assay type: cell-based; settings: for MIC: Staphylococcus aureus, MRSA, read-out: MIC60
Procedure: In order to verify the inhibitory effect of the compound of formula 1 on antibiotic-resistant strains, drug susceptibility was evaluated by treating the compound of formula 1 with Staphylococcus aureus phenotype isolated from each patient. […] Appelbaum at Hershey Hospital, who is recognized for its authority in the field of anti-infection worldwide, and about 100 MRSA strains which is currently socially problematic.

[2] = test system: Staphylococcus aureus ATCC 29213 (MSSA, standard strain); test: Susceptibility test (MIC), standard strain; assay type: cell-based
[3] = test system: Staphylococcus aureus 13B-382 (MRSA, clinical strain); test: Susceptibility test (MIC), clinical strain; assay type: cell-based
[4] = Solubility of the compound of formula 1 in various solvents (HPLC); assay type: physicochemical; settings: thermodynamic from solid
Procedure: Prior to preparing the salt of the compound of formula 1, the compound of formula 1 was analyzed to determine the solubility in various solvents. First, the compound of formula 1 was supersaturated in a pharmaceutically acceptable solvent as shown in Table 5 and stirred in a dark room at room temperature for 12 hours. It was first centrifuged to take a supernatant, and then again filtered with a 0.25 μm PVDF filter to remove insoluble materials remaining in the solution. The filtrate was diluted with methanol and then subjected to HPLC analysis to quantify the solubility. In addition, HPLC analysis conditions are as follows.
20 μL of each of the test solution and the standard solution were tested according to a liquid chromatography method (HPLC) of general test methods of the Korean Pharmacopoeia under the following conditions, and the peak area of the main component of each solution was measured.
Detector: UV spectrophotometer (measurement wavelength 286 nm)
Column: Aegispak C18-L (4.6 mm×250 mm, 5 μm) column
Column temperature: 25° C.
Mobile phase: Acetonitrile:water=3:2

[5] = Solubility in distilled water (Experimental Example 6); assay type: physicochemical
Procedure: First, an excess of each substance was added to distilled water and mixed at room temperature for 12 hours. After standing for 2 hours to take the supernatant, it was filtered using a filter having 0.25 μm pores. After diluting this in methanol again, HPLC analysis was performed.

CC[C@H]1OC(=O)[C@H](C)[C@@H](O[C@H]2C[C@@](C)(OC)[C@@H](O)[C@H](C)O2)[C@H](C)[C@@H](O[C@@H]2O[C@H](C)C[C@H](N(C)C)[C@H]2O)[C@](C)(O)C[C@@H](C)CN(C)[C@H](C)[C@@H](O)[C@]1(C)O [Azithromycin]
MIC ([1]; Methicillin-resistant, n = 100): > 64 µg/mL

CCCCCCCCCC(=O)N[C@@H](Cc1c[nH]c2ccccc12)C(=O)N[C@H](CC(N)=O)C(=O)N[C@@H](CC(=O)O)C(=O)N[C@@H]1C(=O)NCC(=O)N[C@@H](CCCN)C(=O)N[C@@H](CC(=O)O)C(=O)N[C@H](C)C(=O)N[C@@H](CC(=O)O)C(=O)NCC(=O)N[C@H](CO)C(=O)N[C@@H]([C@H](C)CC(=O)O)C(=O)N[C@@H](CC(=O)c2ccccc2N)C(=O)O[C@@H]1C [Daptomycin]
MIC ([1]; Methicillin-resistant, n = 100): 0.5 µg/mL (≈ 0.309 µM)

C[C@H]1COc2c(N3CCN(C)CC3)c(F)cc3c(=O)c(C(=O)O)cn1c23 [Levofloxacin]
MIC ([1]; Methicillin-resistant, n = 100): 1 µg/mL (≈ 2.77 µM)

CC(=O)NC[C@H]1CN(c2ccc(N3CCOCC3)c(F)c2)C(=O)O1 [Linezolid]
MIC ([1]; Methicillin-resistant, n = 100): 1 µg/mL (≈ 2.96 µM)

CN[C@H](CC(C)C)C(=O)N[C@H]1C(=O)N[C@@H](CC(N)=O)C(=O)N[C@H]2C(=O)N[C@H]3C(=O)N[C@H](C(=O)N[C@H](C(=O)O)c4cc(O)cc(O)c4-c4cc3ccc4O)[C@H](O)c3ccc(c(Cl)c3)Oc3cc2cc(c3O[C@@H]2O[C@H](CO)[C@@H](O)[C@H](O)[C@H]2O[C@H]2C[C@](C)(N)[C@H](O)[C@H](C)O2)Oc2ccc(cc2Cl)[C@H]1O [Vancomycin]
MIC [1]: 1 µg/mL (≈ 0.69 µM) | MIC [2]: 0.5 µg/mL (≈ 0.345 µM) | MIC [3]: 1 µg/mL (≈ 0.69 µM)

Cc1c(N)cccc1Cn1ccc(OCCc2cccs2)cc1=O [compound of formula 1, 1-(3-amino-2-methylbenzyl)-4-(2-thiophen-2-yl-ethoxy)-1H-pyridin-2-one]
solubility at 12 h ([4]; PEG 300, organic solvent or mixture, PEG 300, room temperature, read-out: Solubility): 22000 µg/mL | solubility at 12 h ([4]; dichloromethane, organic solvent or mixture, Dichloromethane, room temperature, read-out: Solubility): > 50000 µg/mL | solubility at 12 h ([4]; methanol, organic solvent or mixture, Methanol, room temperature, read-out: Solubility): < 10000 µg/mL | solubility at 12 h ([4]; pH 1.2 aqueous solution, pH 1.2, simulated gastric fluid, pH 1.2 aqueous solution, room temperature, read-out: Solubility): ~900 µg/mL | solubility at 12 h ([4]; water, Water, room temperature, read-out: Solubility): 2 µg/mL | solubility at 12 h ([4]; water, distilled water / water (neutral), read-out: Solubility in water): 2.5 µg/mL | pH ([5]; of the solubility test in distilled water): 6.8 | solubility at 12 h ([5]; pH 6.8, thermodynamic from solid, distilled water, room temperature, 12 hours): 2.5 µg/mL

Teicoplanin
MIC60 ([1]; Methicillin-resistant, n = 100): 1.0 µg/mL
